Reference: ChEMBL document CHEMBL4507301 (2021)

How the values were obtained:
[1] = test system: Phosphatidylinositol 4,5-bisphosphate 3-kinase catalytic subunit alpha isoform (Homo sapiens), P42336 [I800L]; conditions: Compound concentration 1000.0 nM
[2] = biological target: Phosphatidylinositol 5-phosphate 4-kinase type-2 beta (Homo sapiens) (UniProt P78356); conditions: Compound concentration 1000.0 nM
[3] = biological target: Serine/threonine-protein kinase tousled-like 1 (Homo sapiens) (UniProt Q9UKI8); conditions: Compound concentration 1000.0 nM
[4] = biological target: Non-receptor tyrosine-protein kinase TYK2 (Homo sapiens) (UniProt P29597); conditions: Compound concentration 1000.0 nM
[5] = biological target: Tyrosine-protein kinase Fes/Fps (Homo sapiens) (UniProt P07332); conditions: Compound concentration 1000.0 nM
[6] = biological target: Phosphorylase b kinase gamma catalytic chain, skeletal muscle/heart isoform (Homo sapiens) (UniProt Q16816); conditions: Compound concentration 1000.0 nM
[7] = biological target: Phosphatidylinositol 4,5-bisphosphate 3-kinase catalytic subunit delta isoform (Homo sapiens) (UniProt O00329); conditions: Compound concentration 1000.0 nM
[8] = biological target: Serine/threonine-protein kinase DCLK3 (Homo sapiens) (UniProt Q9C098); conditions: Compound concentration 1000.0 nM
[9] = test system: Epidermal growth factor receptor (Homo sapiens), P00533 [UNDEFINED MUTATION]; conditions: Compound concentration 1000.0 nM
[10] = biological target: cAMP-dependent protein kinase catalytic subunit PRKX (Homo sapiens) (UniProt P51817); conditions: Compound concentration 1000.0 nM
[11] = test system: Proto-oncogene tyrosine-protein kinase receptor Ret (Homo sapiens), P07949 [V804M]; conditions: Compound concentration 1000.0 nM
[12] = biological target: 5-hydroxytryptamine receptor 1B (Homo sapiens) (UniProt P28222); conditions: Compound concentration 10.0 uM
[13] = biological target: Serine/threonine-protein kinase 33 (Homo sapiens) (UniProt Q9BYT3); conditions: Compound concentration 1000.0 nM
[14] = biological target: Receptor-interacting serine/threonine-protein kinase 4 (Homo sapiens) (UniProt P57078); conditions: Compound concentration 1000.0 nM
[15] = test system: ALK tyrosine kinase receptor (Homo sapiens), Q9UM73 [C1156Y]; conditions: Compound concentration 1000.0 nM
[16] = biological target: 5'-AMP-activated protein kinase catalytic subunit alpha-2 (Homo sapiens) (UniProt P54646); conditions: Compound concentration 1000.0 nM
[17] = biological target: Glycogen synthase kinase-3 beta (Homo sapiens) (UniProt P49841); conditions: Compound concentration 1000.0 nM
[18] = biological target: Serine/threonine-protein kinase PknB (Mycobacterium tuberculosis) (UniProt P9WI81); conditions: Compound concentration 1000.0 nM
[19] = biological target: Calcium/calmodulin-dependent protein kinase kinase 2 (Homo sapiens) (UniProt Q96RR4); conditions: Compound concentration 1000.0 nM
[20] = biological target: Cyclin-dependent kinase-like 5 (Homo sapiens) (UniProt O76039); conditions: Compound concentration 1000.0 nM
[21] = biological target: Fibroblast growth factor receptor 4 (Homo sapiens) (UniProt P22455); conditions: Compound concentration 1000.0 nM
[22] = biological target: Serine/threonine-protein kinase TNNI3K (Homo sapiens) (UniProt Q59H18); conditions: Compound concentration 1000.0 nM
[23] = test system: Tyrosine-protein kinase ABL1 (Homo sapiens), P00519 [F317I]; conditions: Compound concentration 1000.0 nM
[24] = biological target: Alpha-1B adrenergic receptor (Homo sapiens) (UniProt P35368); conditions: Compound concentration 10.0 uM
[25] = test system: Epidermal growth factor receptor (Homo sapiens), P00533 [L858R]; conditions: Compound concentration 1000.0 nM
[26] = test system: Receptor-type tyrosine-protein kinase FLT3 (Homo sapiens), P36888 [N841I]; conditions: Compound concentration 1000.0 nM
[27] = biological target: Serine/threonine-protein kinase TAO3 (Homo sapiens) (UniProt Q9H2K8); conditions: Compound concentration 1000.0 nM
[28] = biological target: Delta-type opioid receptor (Homo sapiens) (UniProt P41143); conditions: Compound concentration 10.0 uM
[29] = biological target: Serine/threonine-protein kinase MRCK gamma (Homo sapiens) (UniProt Q6DT37); conditions: Compound concentration 1000.0 nM
[30] = biological target: Beta-adrenergic receptor kinase 1 (Homo sapiens) (UniProt P25098); conditions: Compound concentration 1000.0 nM
[31] = biological target: Serine/threonine-protein kinase 32C (Homo sapiens) (UniProt Q86UX6); conditions: Compound concentration 1000.0 nM
[32] = biological target: Ephrin type-A receptor 5 (Homo sapiens) (UniProt P54756); conditions: Compound concentration 1000.0 nM
[33] = test system: Tyrosine-protein kinase ABL1 (Homo sapiens), P00519 [Q252H]; conditions: Compound concentration 1000.0 nM
[34] = biological target: 5-hydroxytryptamine receptor 2C (Homo sapiens) (UniProt P28335); conditions: Compound concentration 10.0 uM
[35] = test system: Epidermal growth factor receptor (Homo sapiens), P00533 [UNDEFINED MUTATION]; conditions: Compound concentration 1000.0 nM; remark: listed apart in the source
[36] = test system: Tyrosine-protein kinase ABL1 (Homo sapiens), P00519 [T315I]; conditions: Compound concentration 1000.0 nM
[37] = biological target: Serine/threonine-protein kinase NIM1 (Homo sapiens) (UniProt Q8IY84); conditions: Compound concentration 1000.0 nM
[38] = biological target: Calcium/calmodulin-dependent protein kinase type 1 (Homo sapiens) (UniProt Q14012); conditions: Compound concentration 1000.0 nM
[39] = biological target: Serine/threonine-protein kinase PAK 2 (Homo sapiens) (UniProt Q13177); conditions: Compound concentration 1000.0 nM
[40] = biological target: Serine/threonine-protein kinase SIK3 (Homo sapiens) (UniProt Q9Y2K2); conditions: Compound concentration 1000.0 nM
[41] = biological target: Mitogen-activated protein kinase kinase kinase 10 (Homo sapiens) (UniProt Q02779); conditions: Compound concentration 1000.0 nM
[42] = biological target: Tyrosine-protein kinase BTK (Homo sapiens) (UniProt Q06187); conditions: Compound concentration 1000.0 nM
[43] = biological target: Uncharacterized serine/threonine-protein kinase SBK3 (Homo sapiens) (UniProt P0C264); conditions: Compound concentration 1000.0 nM
[44] = biological target: Ephrin type-A receptor 7 (Homo sapiens) (UniProt Q15375); conditions: Compound concentration 1000.0 nM

Serine/threonine-protein kinase NIM1 (Homo sapiens), sequence (Q8IY84 whole entry): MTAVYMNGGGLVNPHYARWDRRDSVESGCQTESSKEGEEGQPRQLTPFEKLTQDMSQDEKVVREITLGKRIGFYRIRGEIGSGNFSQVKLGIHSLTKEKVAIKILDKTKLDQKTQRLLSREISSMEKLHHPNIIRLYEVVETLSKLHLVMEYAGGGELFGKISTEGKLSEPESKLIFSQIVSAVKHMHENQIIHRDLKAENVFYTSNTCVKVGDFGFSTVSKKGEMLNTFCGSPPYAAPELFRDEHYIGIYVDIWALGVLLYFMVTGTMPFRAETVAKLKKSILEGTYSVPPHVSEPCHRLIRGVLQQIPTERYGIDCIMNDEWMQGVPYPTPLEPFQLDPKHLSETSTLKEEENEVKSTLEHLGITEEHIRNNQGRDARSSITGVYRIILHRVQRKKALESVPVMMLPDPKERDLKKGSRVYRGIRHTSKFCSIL
Proto-oncogene tyrosine-protein kinase receptor Ret (Homo sapiens), P07949 [V804M], sequence (P07949 whole entry V804M): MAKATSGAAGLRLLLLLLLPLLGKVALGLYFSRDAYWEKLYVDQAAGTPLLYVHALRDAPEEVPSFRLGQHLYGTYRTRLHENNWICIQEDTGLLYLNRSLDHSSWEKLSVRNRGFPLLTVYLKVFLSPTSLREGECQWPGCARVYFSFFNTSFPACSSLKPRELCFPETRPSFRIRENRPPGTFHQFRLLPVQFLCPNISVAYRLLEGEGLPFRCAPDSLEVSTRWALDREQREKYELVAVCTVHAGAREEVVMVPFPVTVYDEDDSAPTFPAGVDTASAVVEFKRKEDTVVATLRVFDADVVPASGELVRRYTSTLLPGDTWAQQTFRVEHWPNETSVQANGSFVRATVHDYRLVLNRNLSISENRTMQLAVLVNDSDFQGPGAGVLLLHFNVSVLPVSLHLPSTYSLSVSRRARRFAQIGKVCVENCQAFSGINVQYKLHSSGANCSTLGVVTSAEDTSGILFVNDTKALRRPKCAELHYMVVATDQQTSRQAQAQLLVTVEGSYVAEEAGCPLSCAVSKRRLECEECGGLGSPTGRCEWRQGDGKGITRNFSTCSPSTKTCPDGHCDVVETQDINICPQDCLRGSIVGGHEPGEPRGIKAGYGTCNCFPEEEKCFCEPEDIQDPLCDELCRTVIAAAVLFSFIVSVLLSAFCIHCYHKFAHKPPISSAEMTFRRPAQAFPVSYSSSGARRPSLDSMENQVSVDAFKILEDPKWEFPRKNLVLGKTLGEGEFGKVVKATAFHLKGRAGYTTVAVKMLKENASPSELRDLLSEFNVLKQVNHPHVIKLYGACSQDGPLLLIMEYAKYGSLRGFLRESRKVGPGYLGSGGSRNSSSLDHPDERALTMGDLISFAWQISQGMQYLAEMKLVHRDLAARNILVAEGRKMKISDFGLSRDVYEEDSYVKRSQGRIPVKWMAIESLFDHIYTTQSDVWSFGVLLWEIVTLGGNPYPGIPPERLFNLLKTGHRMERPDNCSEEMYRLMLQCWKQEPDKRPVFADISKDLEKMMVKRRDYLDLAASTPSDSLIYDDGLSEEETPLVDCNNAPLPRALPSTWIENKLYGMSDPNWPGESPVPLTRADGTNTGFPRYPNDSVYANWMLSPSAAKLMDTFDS
Mitogen-activated protein kinase kinase kinase 10 (Homo sapiens), sequence (Q02779 whole entry, looked up): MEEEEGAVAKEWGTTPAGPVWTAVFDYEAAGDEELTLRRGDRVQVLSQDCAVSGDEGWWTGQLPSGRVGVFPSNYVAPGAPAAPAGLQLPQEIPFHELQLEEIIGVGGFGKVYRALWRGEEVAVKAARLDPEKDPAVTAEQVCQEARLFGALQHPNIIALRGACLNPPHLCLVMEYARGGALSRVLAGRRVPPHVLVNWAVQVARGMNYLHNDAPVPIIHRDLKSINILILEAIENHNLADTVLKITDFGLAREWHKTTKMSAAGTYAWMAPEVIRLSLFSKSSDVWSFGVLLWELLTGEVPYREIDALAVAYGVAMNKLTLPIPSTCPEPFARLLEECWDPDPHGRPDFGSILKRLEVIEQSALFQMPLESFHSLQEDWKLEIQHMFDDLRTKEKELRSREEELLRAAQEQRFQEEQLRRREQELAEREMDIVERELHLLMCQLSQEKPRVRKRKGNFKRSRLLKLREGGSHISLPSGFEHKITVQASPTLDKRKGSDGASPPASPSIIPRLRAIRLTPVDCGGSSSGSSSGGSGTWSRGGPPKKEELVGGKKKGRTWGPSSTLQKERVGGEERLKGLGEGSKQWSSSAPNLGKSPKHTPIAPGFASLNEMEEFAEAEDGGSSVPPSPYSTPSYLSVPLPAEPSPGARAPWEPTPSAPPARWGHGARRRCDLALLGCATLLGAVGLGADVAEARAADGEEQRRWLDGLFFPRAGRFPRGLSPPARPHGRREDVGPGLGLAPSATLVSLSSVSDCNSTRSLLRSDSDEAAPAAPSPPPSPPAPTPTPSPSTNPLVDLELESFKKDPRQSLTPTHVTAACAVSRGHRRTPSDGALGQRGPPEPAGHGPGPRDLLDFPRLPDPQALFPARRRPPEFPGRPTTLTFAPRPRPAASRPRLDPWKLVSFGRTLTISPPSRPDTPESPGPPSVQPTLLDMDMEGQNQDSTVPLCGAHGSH
Calcium/calmodulin-dependent protein kinase type 1 (Homo sapiens), sequence (Q14012 whole entry, looked up): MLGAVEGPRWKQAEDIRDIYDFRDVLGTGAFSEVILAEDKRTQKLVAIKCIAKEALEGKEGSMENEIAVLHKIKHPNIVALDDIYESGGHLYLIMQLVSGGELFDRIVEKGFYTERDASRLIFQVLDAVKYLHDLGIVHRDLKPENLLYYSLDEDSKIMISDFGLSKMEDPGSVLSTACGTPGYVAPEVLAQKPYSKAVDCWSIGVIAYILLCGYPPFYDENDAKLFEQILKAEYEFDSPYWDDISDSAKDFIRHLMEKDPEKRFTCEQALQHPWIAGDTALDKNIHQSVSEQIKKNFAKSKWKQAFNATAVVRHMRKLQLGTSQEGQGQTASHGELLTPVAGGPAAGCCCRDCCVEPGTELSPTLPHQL
Non-receptor tyrosine-protein kinase TYK2 (Homo sapiens), sequence (P29597 whole entry): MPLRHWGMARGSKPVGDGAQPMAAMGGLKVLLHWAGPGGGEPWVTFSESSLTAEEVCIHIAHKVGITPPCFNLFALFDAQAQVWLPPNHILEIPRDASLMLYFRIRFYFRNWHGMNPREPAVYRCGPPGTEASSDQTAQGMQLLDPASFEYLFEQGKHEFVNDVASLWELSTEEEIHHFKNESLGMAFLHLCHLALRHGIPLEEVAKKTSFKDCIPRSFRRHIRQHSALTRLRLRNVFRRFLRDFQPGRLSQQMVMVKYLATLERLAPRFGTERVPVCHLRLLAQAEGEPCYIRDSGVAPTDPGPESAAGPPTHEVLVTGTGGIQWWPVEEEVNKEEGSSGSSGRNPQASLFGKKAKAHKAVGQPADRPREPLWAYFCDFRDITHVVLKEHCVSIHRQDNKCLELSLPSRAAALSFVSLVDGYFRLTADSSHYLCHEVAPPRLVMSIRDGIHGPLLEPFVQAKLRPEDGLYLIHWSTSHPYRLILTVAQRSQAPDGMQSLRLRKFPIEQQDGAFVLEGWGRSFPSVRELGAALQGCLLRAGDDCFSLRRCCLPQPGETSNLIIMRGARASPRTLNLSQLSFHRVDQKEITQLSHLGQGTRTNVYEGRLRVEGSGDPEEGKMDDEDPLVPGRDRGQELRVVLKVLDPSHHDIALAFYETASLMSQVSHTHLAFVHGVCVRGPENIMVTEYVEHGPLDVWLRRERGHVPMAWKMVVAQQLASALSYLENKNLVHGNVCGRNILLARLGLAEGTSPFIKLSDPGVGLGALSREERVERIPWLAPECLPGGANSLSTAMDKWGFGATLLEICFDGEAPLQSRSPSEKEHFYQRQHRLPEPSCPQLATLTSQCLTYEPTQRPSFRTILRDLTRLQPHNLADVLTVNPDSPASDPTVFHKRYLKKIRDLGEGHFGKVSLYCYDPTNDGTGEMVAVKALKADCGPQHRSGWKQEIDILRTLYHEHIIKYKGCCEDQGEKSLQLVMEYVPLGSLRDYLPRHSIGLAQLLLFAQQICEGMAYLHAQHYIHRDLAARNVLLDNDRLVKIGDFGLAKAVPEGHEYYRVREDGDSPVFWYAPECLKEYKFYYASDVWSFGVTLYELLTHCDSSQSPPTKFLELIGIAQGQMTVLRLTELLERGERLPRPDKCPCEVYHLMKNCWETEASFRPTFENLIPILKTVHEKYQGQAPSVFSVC
Serine/threonine-protein kinase PknB (Mycobacterium tuberculosis), sequence (P9WI81 whole entry): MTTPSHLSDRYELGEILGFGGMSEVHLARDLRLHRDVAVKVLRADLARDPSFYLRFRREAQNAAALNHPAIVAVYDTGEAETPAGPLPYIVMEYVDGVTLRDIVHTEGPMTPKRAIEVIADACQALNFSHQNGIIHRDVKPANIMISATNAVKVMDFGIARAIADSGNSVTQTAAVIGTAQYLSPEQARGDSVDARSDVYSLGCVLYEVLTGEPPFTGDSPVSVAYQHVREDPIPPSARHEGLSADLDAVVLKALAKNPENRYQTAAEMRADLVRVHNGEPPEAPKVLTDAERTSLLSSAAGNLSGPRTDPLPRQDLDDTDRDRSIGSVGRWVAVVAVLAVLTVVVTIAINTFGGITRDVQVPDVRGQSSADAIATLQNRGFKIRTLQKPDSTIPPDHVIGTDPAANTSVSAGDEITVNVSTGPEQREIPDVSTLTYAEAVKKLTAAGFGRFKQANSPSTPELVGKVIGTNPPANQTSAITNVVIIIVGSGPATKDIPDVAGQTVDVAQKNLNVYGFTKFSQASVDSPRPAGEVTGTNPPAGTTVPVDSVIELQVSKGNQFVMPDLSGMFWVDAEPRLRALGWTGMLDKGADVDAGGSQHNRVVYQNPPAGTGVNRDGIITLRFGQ
Uncharacterized serine/threonine-protein kinase SBK3 (Homo sapiens), sequence (P0C264 whole entry): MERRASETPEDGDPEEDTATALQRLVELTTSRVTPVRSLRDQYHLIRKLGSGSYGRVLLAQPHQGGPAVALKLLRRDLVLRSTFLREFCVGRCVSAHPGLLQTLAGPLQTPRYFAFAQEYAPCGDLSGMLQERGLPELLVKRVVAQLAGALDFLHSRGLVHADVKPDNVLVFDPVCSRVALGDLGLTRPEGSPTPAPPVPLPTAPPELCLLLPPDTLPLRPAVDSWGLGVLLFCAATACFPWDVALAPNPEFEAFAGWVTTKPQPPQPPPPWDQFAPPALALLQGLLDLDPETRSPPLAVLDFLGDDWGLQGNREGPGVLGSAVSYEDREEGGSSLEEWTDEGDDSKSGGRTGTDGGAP

C[C@@H](c1cccc(C#N)c1)n1cc(Cl)cc(C(N)=O)c1=N [(S)-9s]
inactive: residual activity [1] 71% | residual activity [2] 73% | residual activity [3] 100% | residual activity [4] 100% | residual activity [5] 77% | residual activity [6] 100% | residual activity [7] 100% | residual activity [8] 86% | residual activity [9] 90% | residual activity [10] 100% | residual activity [11] 89% | inhibition [12] -2.19% | residual activity [13] 100% | residual activity [14] 57% | residual activity [15] 98% | residual activity [16] 96% | residual activity [17] 88% | residual activity [18] 100% | residual activity [19] 100% | residual activity [20] 89% | residual activity [21] 100% | residual activity [22] 100% | residual activity [23] 100% | inhibition [24] -5.97% | residual activity [25] 100% | residual activity [26] 86% | residual activity [27] 75% | inhibition [28] -3.33% | residual activity [29] 100% | residual activity [30] 78% | residual activity [31] 100% | residual activity [32] 96% | residual activity [33] 68% | inhibition [34] 16.8% | residual activity [35] 88% | residual activity [37] 97% | residual activity [38] 100% | residual activity [39] 96% | residual activity [40] 94% | residual activity [41] 77% | residual activity [42] 98% | residual activity [43] 95% | residual activity [44] 100%
active: residual activity [36] 0%

C[C@H](c1cccc(C#N)c1)n1cc(Cl)cc(C(N)=O)c1=N [(R)-9s]
inactive: residual activity [1] 56% | residual activity [2] 52% | residual activity [3] 94% | residual activity [4] 100% | residual activity [5] 53% | residual activity [6] 100% | residual activity [7] 99% | residual activity [8] 99% | residual activity [9] 97% | residual activity [10] 100% | residual activity [11] 100% | inhibition [12] 9.16% | residual activity [13] 92% | residual activity [14] 71% | residual activity [15] 89% | residual activity [16] 94% | residual activity [17] 95% | residual activity [18] 89% | residual activity [19] 100% | residual activity [20] 73% | residual activity [21] 87% | residual activity [22] 92% | residual activity [23] 89% | inhibition [24] -1.16% | residual activity [25] 86% | residual activity [26] 97% | residual activity [27] 67% | inhibition [28] -7.87% | residual activity [29] 77% | residual activity [30] 81% | residual activity [31] 100% | residual activity [32] 96% | residual activity [33] 100% | inhibition [34] 9.56% | residual activity [35] 78% | residual activity [36] 96% | residual activity [37] 84% | residual activity [38] 100% | residual activity [39] 100% | residual activity [40] 100% | residual activity [41] 100% | residual activity [42] 91% | residual activity [43] 95% | residual activity [44] 98%
